This experiment is described as follows: Inhibition of [3H]pentazocine binding to sigma-1 sites in guinea pig brain membranes.

In general, Ki refers to the equilibrium dissociation constant of an inhibitor or competing ligand from its target. Low values mean higher affinity, high ones lower affinity. `C[C@@H]1[C@@H]2Cc3ccc(O)cc3[C@]1(C)CCN2CCN1CCCCC1` [(2S,6R,11S)-6,11-Dimethyl-3-(2-piperidin-1-yl-ethyl)-1,2,3,4,5,6-hexahydro-2,6-methano-benzo[d]azocin-8-ol] showed a Ki of 0.0096 µM.

Regarding `CCN(CCN1CC[C@@]2(C)c3cc(O)ccc3C[C@H]1[C@H]2C)c1ccccc1` [(2S,6R,11S)-3-[2-(Ethyl-phenyl-amino)-ethyl]-6,11-dimethyl-1,2,3,4,5,6-hexahydro-2,6-methano-benzo[d]azocin-8-ol], the affinity corresponds to a Ki of 0.042 µM. As for `C[C@@H]1[C@@H]2Cc3ccc(O)cc3[C@]1(C)CCN2CCN(C)c1ccccc1` [(2S,6R,11S)-6,11-Dimethyl-3-[2-(methyl-phenyl-amino)-ethyl]-1,2,3,4,5,6-hexahydro-2,6-methano-benzo[d]azocin-8-ol], the figure is 0.0056 µM; as for `C[C@@H]1[C@@H]2Cc3ccc(O)cc3[C@]1(C)CCN2CCN1CCCC1` [(2S,6R,11S)-6,11-Dimethyl-3-(2-pyrrolidin-1-yl-ethyl)-1,2,3,4,5,6-hexahydro-2,6-methano-benzo[d]azocin-8-ol], 0.0074 µM; as for `C[C@@H]1[C@@H]2Cc3ccc(O)cc3[C@]1(C)CCN2CCNC1CCCCC1` [(2S,6R,11S)-3-(2-Cyclohexylamino-ethyl)-6,11-dimethyl-1,2,3,4,5,6-hexahydro-2,6-methano-benzo[d]azocin-8-ol], 0.042 µM. With `C[C@@H]1[C@@H]2Cc3ccc(O)cc3[C@]1(C)CCN2CCN1CCCCCC1` [(2S,6R,11S)-3-(2-Azepan-1-yl-ethyl)-6,11-dimethyl-1,2,3,4,5,6-hexahydro-2,6-methano-benzo[d]azocin-8-ol], the affinity, expressed as Ki, was 0.02 µM. As for `C[C@@H]1[C@@H]2Cc3ccc(O)cc3[C@]1(C)CCN2CCNCc1ccccc1` [(2S,6R,11S)-3-(2-Benzylamino-ethyl)-6,11-dimethyl-1,2,3,4,5,6-hexahydro-2,6-methano-benzo[d]azocin-8-ol], the figure is 0.03 µM; as for `C=CCN1CCC2c3cc(O)ccc3CC1C2C` (configuration not stated) [SK&F-10047], 0.169 µM. The compound `C[C@@H]1[C@@H]2Cc3ccc(O)cc3[C@]1(C)CCN2CCN1CCOCC1` [(2S,6R,11S)-6,11-Dimethyl-3-(2-morpholin-4-yl-ethyl)-1,2,3,4,5,6-hexahydro-2,6-methano-benzo[d]azocin-8-ol] had a Ki of 0.013 µM. As for `C[C@@H]1[C@@H]2Cc3ccc(O)cc3[C@]1(C)CCN2CCN(C)C` [(2S,6R,11S)-3-(2-Dimethylamino-ethyl)-6,11-dimethyl-1,2,3,4,5,6-hexahydro-2,6-methano-benzo[d]azocin-8-ol], the figure is 0.02 µM; as for `C[C@@H]1[C@@H]2Cc3ccc(O)cc3[C@]1(C)CCN2CCNc1ccccc1` [(2S,6R,11S)-6,11-Dimethyl-3-(2-phenylamino-ethyl)-1,2,3,4,5,6-hexahydro-2,6-methano-benzo[d]azocin-8-ol], 0.0059 µM; as for `CCN(CC)CCN1CC[C@@]2(C)c3cc(O)ccc3C[C@H]1[C@H]2C` [(2S,6R,11S)-3-(2-Diethylamino-ethyl)-6,11-dimethyl-1,2,3,4,5,6-hexahydro-2,6-methano-benzo[d]azocin-8-ol], 0.015 µM.

The values are drawn from BindingDB's records for doi:10.1021/jm970333f (University of Catania, 1998).
